From ChEMBL document CHEMBL5360650, “Discovery of Small-Molecule TIM-3 Inhibitors for Acute Myeloid Leukemia Using Pharmacophore-Based Virtual Screening” (J Med Chem, 2023)
Activity calls are given as the source filed them. No cut-off for these calls is given here.

Key:
[1] = biological target: T1, Hepatitis A virus cellular receptor 2 (Homo sapiens, UniProt Q8TDQ0); test: Binding affinity to His-tagged recombinant human TIM3 expressed in HEK293 cells assessed as dissociation constant by sensor chip immobilization based SPR analysis
T1 sequence (Q8TDQ0 whole entry): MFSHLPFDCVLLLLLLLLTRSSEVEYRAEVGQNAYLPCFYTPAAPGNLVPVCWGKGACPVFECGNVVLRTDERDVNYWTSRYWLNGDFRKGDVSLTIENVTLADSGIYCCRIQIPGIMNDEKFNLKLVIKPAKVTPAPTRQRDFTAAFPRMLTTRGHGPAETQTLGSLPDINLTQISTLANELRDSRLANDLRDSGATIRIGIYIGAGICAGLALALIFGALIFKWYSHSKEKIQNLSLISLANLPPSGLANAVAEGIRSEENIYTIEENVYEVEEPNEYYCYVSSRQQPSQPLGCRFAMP

[2] = biological target: T1, Hepatitis A virus cellular receptor 2; test: Binding affinity to His-tagged recombinant human TIM3 expressed in HEK293 cells assessed as dissociation constant by MST assay; format: cell-based
[3] = biological target: Hepatitis A virus cellular receptor 2 (Homo sapiens) (UniProt Q8TDQ0); test: Inhibition of AF647-labeled TIM3 (unknown origin) binding to ptdSer in staurosporine-induced human Jurkat cells at 200 to 1000 nM preincubated with TIM3 followed by cell culture addition by flow cytometry; format: cell-based; conditions: dose 200-1000 nM
[4] = species: Homo sapiens; test: Inhibition of polyhis-tagged CEACAM1 binding to recombinant human TIM3 at 200 to 1000 nM preincubated with TIM3 for 1 hr followed by CEACAM1 addition measured after 1 hr by ELISA method; conditions: dose 200-1000 nM, time 2.0 hrs
[5] = biological target: Hepatitis A virus cellular receptor 2 (Homo sapiens) (UniProt Q8TDQ0); test: Inhibition of recombinant human Gal-9 binding to biotinylated recombinant human TIM3 at 1 uM by competitive ELISA method
[6] = biological target: Hepatitis A virus cellular receptor 2 (Homo sapiens) (UniProt Q8TDQ0); test: Inhibition of recombinant TIM3 (unknown origin) cocultured in PBMC cells assessed as IFN-gamma release at 5 uM by ELISA method; format: cell-based
[7] = tested on: THP-1; test: Inhibition of cell proliferation of human THP-1 NucLight Red cells at 5 uM by incucyte based immune cell killing assay; format: functional
[8] = tested on: Kasumi 1; test: Inhibition of cell proliferation of human Kasumi 1 cocultured with 5 uM compound treated human PBMC cells by H3 thymidine uptake; format: functional, cell-based

SMILES: COc1ccc(-c2noc(-c3cccc(NC(=O)COc4ccccc4)c3)n2)cc1
- Kd [1]: 12.7 µM

SMILES: CCOc1ccc(NC(=O)COc2cccc(-c3nc(-c4ccc(OC)cc4)no3)c2)cc1
- Kd [1]: 1.35 µM

SMILES: Cc1ccc(Nc2nc(C)cc(Nc3ccc(NC(=O)c4ccc5c(c4)OCO5)cc3)n2)cc1
- Kd [1]: 17.3 µM

SMILES: COc1ccc(-c2noc(-c3cccc(NC(=O)COc4cccc(C)c4)c3)n2)cc1
- Kd [1]: 6.04 µM

SMILES: COc1ccc(-c2noc(-c3cccc(OCC(=O)Nc4cc(OC)ccc4OC)c3)n2)cc1
- Kd [1]: 0.98 µM

SMILES: COc1ccc(-c2noc(-c3cccc(OCC(=O)Nc4ccc(C)nc4)c3)n2)cc1
- Kd [1]: 2.47 µM

SMILES: Cc1ccc(-c2noc(-c3cccc(NC(=O)COc4ccccc4)c3)n2)cc1
- Kd [1]: 42.4 µM

SMILES: CCOc1ccc(NC(=O)COc2cccc(-c3noc(-c4ccc(OC)cc4)n3)c2)cc1
- Kd [1]: 1.28 µM

SMILES: COc1ccc(-c2noc(-c3cccc(NC(=O)COc4ccccc4C)c3)n2)cc1
- Kd [1]: 8.32 µM

SMILES: COc1ccc(-c2noc(-c3cccc(OCC(=O)Nc4ccc(F)cc4)c3)n2)cc1
- Kd [1]: 20.4 µM

SMILES: COc1ccc(-c2noc(-c3cccc(OCC(=O)Nc4ccc(OC)cc4OC)c3)n2)cc1
- Kd [1]: 0.61 µM
- Kd [2]: 0.00058 µM
- inhibition [3]: Active
- inhibition [4]: Active
- inhibition [5]: Active
- inhibition [6]: Active
- inhibition [7]: Active
- inhibition [8]: Active

SMILES: COc1ccc(-c2noc(-c3cccc(OCC(=O)Nc4cccc(OC)c4)c3)n2)cc1
- Kd [1]: 1.63 µM

SMILES: COc1ccc(-c2noc(-c3cccc(NC(=O)COc4ccc(C)cc4)c3)n2)cc1
- Kd [1]: 9.45 µM

SMILES: COc1ccc(-c2noc(-c3cccc(OCC(=O)NCc4ccco4)c3)n2)cc1
- Kd [1]: 11.6 µM

SMILES: Cc1cccc(-c2noc(-c3cccc(NC(=O)COc4ccccc4)c3)n2)c1
- Kd [1]: 46.3 µM

SMILES: O=C(COc1ccccc1)Nc1cccc(-c2nc(-c3ccccc3)no2)c1
- Kd [1]: 63.7 µM

SMILES: COc1ccc(-c2noc(-c3cccc(OCC(=O)Nc4cccc(C)c4)c3)n2)cc1
- Kd [1]: 3.12 µM

SMILES: COc1ccc(-c2noc(-c3cccc(OCC(=O)Nc4ccccc4F)c3)n2)cc1
- Kd [1]: 27.6 µM

SMILES: Cc1ccc(OCC(=O)Nc2cccc(-c3nc(-c4ccccc4)no3)c2)cc1
- Kd [1]: 53.1 µM

SMILES: COc1cc(-c2cc(OC)c3c(C)oc(C)c3c(=O)c2)ccc1OC(=O)c1ccc(C)cc1
- Kd [1]: 28.9 µM

SMILES: COc1ccc(-c2noc(-c3cccc(OCC(=O)Nc4ccncc4)c3)n2)cc1
- Kd [1]: 2.01 µM

SMILES: COc1ccc(-c2noc(-c3ccccc3OCC(=O)Nc3cc(C)cc(C)c3)n2)cc1
- Kd [1]: 28.9 µM
